Assay results reported in ChEMBL document CHEMBL5550210, “Discovery of Novel α,β-Unsaturated Amide Derivatives as Candidate Antifungals to Overcome Fungal Resistance” (J Med Chem, 2024).
≈ marks a conversion by molar mass, not a printed value.

Key:
Cryptococcus neoformans = test: Antifungal activity against Cryptococcus neoformans CGMCC2.3161 assessed as inhibition of fungal growth by CLSI protocol based microdilution method; type: functional
Candida albicans [1] = test: Antifungal activity against fluconazole-resistant Candida albicans 17 assessed as inhibition of fungal growth by CLSI based microdilution method; type: functional
Pichia kudriavzevii = test: Antifungal activity against Candida krusei AS 2.1045 assessed as inhibition of fungal growth by CLSI protocol based microdilution method; type: functional
[2] = Half life in mouse plasma measured at 180 mins; type: ADME, cell-free
Candida tropicalis = test: Antifungal activity against Candida tropicalis CGMCC 2.3739 assessed as inhibition of fungal growth by CLSI protocol based microdilution method; type: functional
Candida albicans [3] = test: Antifungal activity against fluconazole-resistant Candida albicans CaR assessed as inhibition of fungal growth by CLSI based microdilution method; type: functional
Candida albicans [4] = test: Antifungal activity against fluconazole-resistant Candida albicans 901 assessed as inhibition of fungal growth by CLSI based microdilution method; type: functional
Aspergillus fumigatus = test: Antifungal activity against Aspergillus fumigatus CGMCC 3.7795 assessed as inhibition of fungal growth by CLSI protocol based microdilution method; type: functional
Candida parapsilosis = test: Antifungal activity against Candida parapsilosis ATCC 22019 assessed as inhibition of fungal growth by CLSI protocol based microdilution method; type: functional; details: Lodderomyces parapsilosis
Candida albicans [5] = test: Antifungal activity against Candida albicans SC5314 assessed as inhibition of fungal growth by CLSI protocol based microdilution method; type: functional
Candida albicans [6] = test: Antifungal activity against fluconazole-resistant Candida albicans 904 assessed as inhibition of fungal growth by CLSI based microdilution method; type: functional
Candida albicans [7] = test: Antifungal activity against fluconazole-resistant Candida albicans 632 assessed as inhibition of fungal growth by CLSI based microdilution method; type: functional
Nakaseomyces glabratus = test: Antifungal activity against Candida glabrata assessed as inhibition of fungal growth by CLSI protocol based microdilution method; type: functional
Candida albicans [8] = test: Antifungal activity against Candida albicans CPCC400616 assessed as inhibition of fungal growth by CLSI protocol based microdilution method; type: functional

Q: Which MIC (Cryptococcus neoformans) does the source give for O=c1ccc2ccc(COC(Cn3ccnc3)c3ccc(Cl)cc3Cl)cc2o1 (centres undefined) here?
A: 2 µg/mL (≈ 4.82 µM)

Q: What about the MIC (Candida albicans [1]) of the same compound?
A: 4 µg/mL (≈ 9.63 µM)

Q: What about the MIC (Pichia kudriavzevii) of the same compound?
A: 2 µg/mL (≈ 4.82 µM)

Q: And the half-life [2]?
A: > 6 h

Q: What about the MIC (Candida tropicalis) of the same compound?
A: 0.25 µg/mL (≈ 0.602 µM)

Q: And the MIC (Candida albicans [3])?
A: 1 µg/mL (≈ 2.41 µM)

Q: What about the MIC (Candida albicans [4]) of the same compound?
A: 4 µg/mL (≈ 9.63 µM)

Q: And the MIC (Aspergillus fumigatus)?
A: 1 µg/mL (≈ 2.41 µM)

Q: What about the MIC (Candida parapsilosis) of the same compound?
A: 0.5 µg/mL (≈ 1.2 µM)

Q: And the MIC (Candida albicans [5])?
A: 0.03 µg/mL (≈ 0.0722 µM)

Q: And the MIC (Candida albicans [6])?
A: 1 µg/mL (≈ 2.41 µM)

Q: And the MIC (Candida albicans [7])?
A: 4 µg/mL (≈ 9.63 µM)

Q: What about the MIC (Nakaseomyces glabratus) of the same compound?
A: 0.5 µg/mL (≈ 1.2 µM)

Q: And the MIC (Candida albicans [8])?
A: 0.06 µg/mL (≈ 0.144 µM)

Q: Which MIC (Cryptococcus neoformans) does the source give for O=C(/C=C/c1ccc(COC(Cn2ccnc2)c2ccc(Cl)cc2Cl)cc1)Nc1ccc(Cl)cc1 (centres undefined) here?
A: 2 µg/mL (≈ 3.8 µM)

Q: And the MIC (Candida albicans [1])?
A: 128 µg/mL (≈ 243 µM)

Q: What about the MIC (Pichia kudriavzevii) of the same compound?
A: 4 µg/mL (≈ 7.59 µM)

Q: What about the MIC (Candida tropicalis) of the same compound?
A: 1 µg/mL (≈ 1.9 µM)

Q: And the MIC (Candida albicans [3])?
A: 8 µg/mL (≈ 15.2 µM)

Q: And the MIC (Candida albicans [4])?
A: 1 µg/mL (≈ 1.9 µM)

Q: What about the MIC (Aspergillus fumigatus) of the same compound?
A: 0.5 µg/mL (≈ 0.949 µM)

Q: What about the MIC (Candida parapsilosis) of the same compound?
A: 0.125 µg/mL (≈ 0.237 µM)

Q: What about the MIC (Candida albicans [5]) of the same compound?
A: 0.03 µg/mL (≈ 0.0569 µM)

Q: What about the MIC (Candida albicans [6]) of the same compound?
A: 0.5 µg/mL (≈ 0.949 µM)

Q: What about the MIC (Candida albicans [7]) of the same compound?
A: 0.5 µg/mL (≈ 0.949 µM)

Q: And the MIC (Nakaseomyces glabratus)?
A: 8 µg/mL (≈ 15.2 µM)

Q: What about the MIC (Candida albicans [8]) of the same compound?
A: 0.06 µg/mL (≈ 0.114 µM)

Q: Which MIC (Cryptococcus neoformans) does the source give for O=C(/C=C/c1ccc(COC(Cn2ccnc2)c2ccc(Cl)cc2Cl)cc1)Nc1ccccc1 (centres undefined) here?
A: 1 µg/mL (≈ 2.03 µM)

Q: And the MIC (Candida albicans [1])?
A: 128 µg/mL (≈ 260 µM)

Q: What about the MIC (Pichia kudriavzevii) of the same compound?
A: 64 µg/mL (≈ 130 µM)

Q: And the MIC (Candida tropicalis)?
A: 2 µg/mL (≈ 4.06 µM)

Q: And the MIC (Candida albicans [3])?
A: 8 µg/mL (≈ 16.2 µM)

Q: What about the MIC (Candida albicans [4]) of the same compound?
A: 1 µg/mL (≈ 2.03 µM)

Q: And the MIC (Aspergillus fumigatus)?
A: 1 µg/mL (≈ 2.03 µM)

Q: And the MIC (Candida parapsilosis)?
A: 32 µg/mL (≈ 65 µM)

Q: What about the MIC (Candida albicans [5]) of the same compound?
A: 0.03 µg/mL (≈ 0.0609 µM)

Q: What about the MIC (Candida albicans [6]) of the same compound?
A: 0.5 µg/mL (≈ 1.02 µM)

Q: And the MIC (Candida albicans [7])?
A: 0.25 µg/mL (≈ 0.508 µM)

Q: And the MIC (Nakaseomyces glabratus)?
A: 64 µg/mL (≈ 130 µM)

Q: What about the MIC (Candida albicans [8]) of the same compound?
A: 0.06 µg/mL (≈ 0.122 µM)

Q: Which MIC (Cryptococcus neoformans) does the source give for COc1ccc(NC(=O)/C=C/c2ccc(COC(Cn3ccnc3)c3ccc(Cl)cc3Cl)cc2)cc1 (centres undefined) here?
A: 0.125 µg/mL (≈ 0.239 µM)

Q: And the MIC (Candida albicans [1])?
A: 2 µg/mL (≈ 3.83 µM)

Q: And the MIC (Pichia kudriavzevii)?
A: 2 µg/mL (≈ 3.83 µM)

Q: And the MIC (Candida tropicalis)?
A: 4 µg/mL (≈ 7.66 µM)

Q: And the MIC (Candida albicans [3])?
A: 4 µg/mL (≈ 7.66 µM)

Q: And the MIC (Candida albicans [4])?
A: 4 µg/mL (≈ 7.66 µM)

Q: What about the MIC (Aspergillus fumigatus) of the same compound?
A: 4 µg/mL (≈ 7.66 µM)

Q: What about the MIC (Candida parapsilosis) of the same compound?
A: 0.125 µg/mL (≈ 0.239 µM)

Q: What about the MIC (Candida albicans [5]) of the same compound?
A: 0.06 µg/mL (≈ 0.115 µM)

Q: What about the MIC (Candida albicans [6]) of the same compound?
A: 4 µg/mL (≈ 7.66 µM)

Q: What about the MIC (Candida albicans [7]) of the same compound?
A: 0.25 µg/mL (≈ 0.479 µM)

Q: And the MIC (Nakaseomyces glabratus)?
A: 4 µg/mL (≈ 7.66 µM)

Q: What about the MIC (Candida albicans [8]) of the same compound?
A: 0.03 µg/mL (≈ 0.0574 µM)

Q: With CNC(=O)/C=C/c1ccc(COC(Cn2ccnc2)c2ccc(Cl)cc2Cl)cc1 (centres undefined) as the compound, how does the MIC (Cryptococcus neoformans) read?
A: 8 µg/mL (≈ 18.6 µM)

Q: And the MIC (Candida albicans [1])?
A: 128 µg/mL (≈ 297 µM)

Q: What about the MIC (Pichia kudriavzevii) of the same compound?
A: 16 µg/mL (≈ 37.2 µM)

Q: What about the MIC (Candida tropicalis) of the same compound?
A: 8 µg/mL (≈ 18.6 µM)

Q: What about the MIC (Candida albicans [3]) of the same compound?
A: 128 µg/mL (≈ 297 µM)

Q: What about the MIC (Candida albicans [4]) of the same compound?
A: 16 µg/mL (≈ 37.2 µM)

Q: And the MIC (Aspergillus fumigatus)?
A: 8 µg/mL (≈ 18.6 µM)

Q: And the MIC (Candida parapsilosis)?
A: 4 µg/mL (≈ 9.3 µM)

Q: What about the MIC (Candida albicans [5]) of the same compound?
A: 0.125 µg/mL (≈ 0.29 µM)

Q: What about the MIC (Candida albicans [6]) of the same compound?
A: 16 µg/mL (≈ 37.2 µM)

Q: What about the MIC (Candida albicans [7]) of the same compound?
A: 4 µg/mL (≈ 9.3 µM)

Q: What about the MIC (Nakaseomyces glabratus) of the same compound?
A: 32 µg/mL (≈ 74.4 µM)

Q: What about the MIC (Candida albicans [8]) of the same compound?
A: 0.25 µg/mL (≈ 0.581 µM)

Q: Which results are given for O=C(/C=C/c1ccc(COC(Cn2ccnc2)c2ccc(Cl)cc2Cl)cc1)Nc1ccc(C(F)(F)F)cc1 (centres undefined)?
A: MIC (Cryptococcus neoformans): 2 µg/mL (≈ 3.57 µM); MIC (Candida albicans [1]): 128 µg/mL (≈ 228 µM); MIC (Pichia kudriavzevii): 64 µg/mL (≈ 114 µM); MIC (Candida tropicalis): 64 µg/mL (≈ 114 µM); MIC (Candida albicans [3]): 64 µg/mL (≈ 114 µM); MIC (Candida albicans [4]): 16 µg/mL (≈ 28.6 µM); MIC (Aspergillus fumigatus): 32 µg/mL (≈ 57.1 µM); MIC (Candida parapsilosis): 0.5 µg/mL (≈ 0.892 µM); MIC (Candida albicans [5]): 0.03 µg/mL (≈ 0.0535 µM); MIC (Candida albicans [6]): 8 µg/mL (≈ 14.3 µM); MIC (Candida albicans [7]): 2 µg/mL (≈ 3.57 µM); MIC (Nakaseomyces glabratus): 32 µg/mL (≈ 57.1 µM); MIC (Candida albicans [8]): 0.03 µg/mL (≈ 0.0535 µM)

Q: Which results are given for Clc1ccc(COC(Cn2ccnc2)c2ccc(Cl)cc2Cl)c(Cl)c1 (centres undefined) [MICONAZOLE]?
A: MIC (Cryptococcus neoformans): 0.25 µg/mL (≈ 0.601 µM); MIC (Pichia kudriavzevii): 0.5 µg/mL (≈ 1.2 µM); half-life [2]: > 6 h; MIC (Candida tropicalis): 1 µg/mL (≈ 2.4 µM); MIC (Aspergillus fumigatus): 2 µg/mL (≈ 4.81 µM); MIC (Candida parapsilosis): 0.25 µg/mL (≈ 0.601 µM); MIC (Candida albicans [5]): 0.03 µg/mL (≈ 0.0721 µM); MIC (Nakaseomyces glabratus): 0.5 µg/mL (≈ 1.2 µM); MIC (Candida albicans [8]): 0.25 µg/mL (≈ 0.601 µM)

Q: With O=C(/C=C/c1ccc(COC(Cn2ccnc2)c2ccc(Cl)cc2Cl)cc1)Nc1ccc(F)cc1 (centres undefined) as the compound, how does the MIC (Cryptococcus neoformans) read?
A: 2 µg/mL (≈ 3.92 µM)

Q: What about the MIC (Candida albicans [1]) of the same compound?
A: 128 µg/mL (≈ 251 µM)

Q: And the MIC (Pichia kudriavzevii)?
A: 64 µg/mL (≈ 125 µM)

Q: What about the MIC (Candida tropicalis) of the same compound?
A: 2 µg/mL (≈ 3.92 µM)

Q: What about the MIC (Candida albicans [3]) of the same compound?
A: 4 µg/mL (≈ 7.84 µM)

Q: And the MIC (Candida albicans [4])?
A: 1 µg/mL (≈ 1.96 µM)

Q: What about the MIC (Aspergillus fumigatus) of the same compound?
A: 1 µg/mL (≈ 1.96 µM)

Q: And the MIC (Candida parapsilosis)?
A: 32 µg/mL (≈ 62.7 µM)

Q: And the MIC (Candida albicans [5])?
A: 0.03 µg/mL (≈ 0.0588 µM)

Q: And the MIC (Candida albicans [6])?
A: 0.5 µg/mL (≈ 0.98 µM)

Q: And the MIC (Candida albicans [7])?
A: 0.25 µg/mL (≈ 0.49 µM)

Q: What about the MIC (Nakaseomyces glabratus) of the same compound?
A: 32 µg/mL (≈ 62.7 µM)

Q: And the MIC (Candida albicans [8])?
A: 0.06 µg/mL (≈ 0.118 µM)

Q: Which results are given for O=C(/C=C/c1ccc(COC(Cn2ccnc2)c2ccc(Cl)cc2Cl)cc1)Nc1cccc(Cl)c1 (centres undefined)?
A: MIC (Cryptococcus neoformans): 16 µg/mL (≈ 30.4 µM); MIC (Candida albicans [1]): 128 µg/mL (≈ 243 µM); MIC (Pichia kudriavzevii): 64 µg/mL (≈ 121 µM); MIC (Candida tropicalis): 32 µg/mL (≈ 60.7 µM); MIC (Candida albicans [3]): 128 µg/mL (≈ 243 µM); MIC (Candida albicans [4]): 4 µg/mL (≈ 7.59 µM); MIC (Aspergillus fumigatus): 16 µg/mL (≈ 30.4 µM); MIC (Candida parapsilosis): 0.125 µg/mL (≈ 0.237 µM); MIC (Candida albicans [5]): 0.06 µg/mL (≈ 0.114 µM); MIC (Candida albicans [6]): 2 µg/mL (≈ 3.8 µM); MIC (Candida albicans [7]): 2 µg/mL (≈ 3.8 µM); MIC (Nakaseomyces glabratus): 64 µg/mL (≈ 121 µM); MIC (Candida albicans [8]): 0.125 µg/mL (≈ 0.237 µM)
